Reference: ChEMBL document CHEMBL1140694, “Identification of new functional inhibitors of acid sphingomyelinase using a structure-property-activity relation model” (J Med Chem, 2008)

Legend:
[1] = physchem
Description: Dissociation constant, pKa of the compound

[2] = Partition coefficient, log P of the compound; assay type: physicochemical; settings: octanol/water

SMILES | pKa [1] | logP ([2]; read-out: LogP) | logP [2]
Cc1ccccc1C(OCCN(C)C)c1ccccc1 (stereo not given) [ORPHENADRINE] | 8.4 | – | –
COc1ccc(CCN2CCC(Nc3nc4ccccc4n3Cc3ccc(F)cc3)CC2)cc1 [ASTEMIZOLE] | 8.5 | 5.48 | –
CN1CCC(=C2c3ccccc3C=Cc3ccccc32)CC1 [CYPROHEPTADINE] | 8.87 | – | –
COc1ccc2c(c1OC)C(=O)O[C@@H]2[C@H]1c2c(cc3c(c2OC)OCO3)CCN1C [NOSCAPINE] | 6.2 | – | –
COc1ccc2c(c1)[nH]c1c(C)nccc12 [HARMINE] | 7.5 | – | –
CN(C)CCCN1c2ccccc2Sc2ccccc21 [PROMAZINE] | 9.34 | – | –
O=c1[nH]c2ccccc2n1C1CCN(CCCC(c2ccc(F)cc2)c2ccc(F)cc2)CC1 [PIMOZIDE] | 8.63 | – | –
CC(NCCC(c1ccccc1)c1ccccc1)c1ccccc1 (stereo not given) [FENDILINE] | 9.04 | 4.89 | –
CN1[C@@H]2CC[C@H]1C[C@@H](OC(c1ccccc1)c1ccccc1)C2 [BENZTROPINE] | 10 | – | –
O=C1NCN(c2ccccc2)C12CCN(CCCC(c1ccc(F)cc1)c1ccc(F)cc1)CC2 | 8.66 | 5.83 | –
CCOC(=O)c1cncn1[C@H](C)c1ccccc1 [ETOMIDATE] | 4.5 | 3.05 | –
CCN(CC)CCNC(=O)c1cc(Br)c(N)cc1OC [BROMOPRIDE] | 9.35 | – | –
COc1cccc([C@@]2(O)CCCC[C@@H]2CN(C)C)c1 [TRAMADOL] | 9.37 | – | –
CC(C)(C)c1ccc(C(O)CCCN2CCC(C(O)(c3ccccc3)c3ccccc3)CC2)cc1 (stereo not given) [TERFENADINE] | 8.6 | – | –
Cc1c(-c2ccccc2)oc2c(C(=O)OCCN3CCCCC3)cccc2c1=O [FLAVOXATE] | 7.3 | – | –
CN1CCC(OC(c2ccccc2)c2ccccc2)CC1 | 8.9 | – | –
CN(C)CC/C=C1\c2ccccc2COc2ccccc21 [DOXEPIN] | – | 4.01 | –
CN(C)CC/C=C1/c2ccccc2Sc2ccc(Cl)cc21 [CHLORPROTHIXENE] | 8.84 | 5.18 | –
CCCCNc1ccc(C(=O)OCCN(C)C)cc1 [TETRACAINE] | 8.39 | 3.73 | –
NCCc1cc(O)c(O)cc1O [OXIDOPAMINE] | 10.3 | – | –
C(=C\c1ccccc1)/CN1CCN(C(c2ccccc2)c2ccccc2)CC1 [CINNARIZINE] | 7.47 | – | –
Cc1ccc(C(=CCN2CCCC2)c2ccccn2)cc1 [TRIPROLIDINE] | 9.69 | 3.47 | –
CC12CC3CC(C)(C1)CC(N)(C3)C2 [MEMANTINE] | 10.4 | – | –
Fc1ccc(C(c2ccc(F)cc2)N2CCN(C/C=C/c3ccccc3)CC2)cc1 [FLUNARIZINE] | 7.71 | 6.42 | –
Cc1nc2sccn2c(=O)c1CCN1CCC(=C(c2ccc(F)cc2)c2ccc(F)cc2)CC1 [RITANSERIN] | 8.2 | – | –

SMILES | pKa [1] | logP ([2]; read-out: LogP) | logP [2]
COc1cc(N)c(Cl)cc1C(=O)NC1CCN(CCCOc2ccc(F)cc2)CC1OC (stereo not given) [CISAPRIDE] | 7.9 | – | –
CNCCCC12CCC(c3ccccc31)c1ccccc12 [MAPROTILINE] | – | 4.5 | –
CN(Cc1cc(Br)cc(Br)c1N)C1CCCCC1 [BROMHEXINE] | 8.5 | – | –
COc1cc(N)c(Cl)cc1C(=O)NC1CCN(Cc2ccccc2)CC1 [CLEBOPRIDE] | 8.59 | 2.72 | –
O=c1[nH]c2ccccc2n1CCCN1CCC(n2c(=O)[nH]c3cc(Cl)ccc32)CC1 [DOMPERIDONE] | – | 4.05 | –
CNC1(C)C2CCC(C2)C1(C)C (stereo not given) [MECAMYLAMINE] | 11.2 | – | –
CN1CCC(=C2c3ccccc3CC(=O)c3sccc32)CC1 [KETOTIFEN] | 8.24 | 3.56 | –
COc1ccc(Cc2nccc3cc(OC)c(OC)cc23)cc1OC [PAPAVERINE] | 6.25 | 2.93 | –
N#Cc1ccc2c(c1)N(CCCN1CCC(O)CC1)c1ccccc1S2 [PERICIAZINE] | 8.76 | – | –
O[C@@](CCN1CCCCC1)(c1ccccc1)C1CCCCC1 [TRIHEXYPHENIDYL] | 8.7 | – | –
COc1ccc(CN(CCN(C)C)c2ccccn2)cc1 [PYRILAMINE] | 8.92 | – | –
Nc1ncn([C@@H]2O[C@H](CO)[C@@H](O)[C@H]2O)c(=O)n1 [AZACITIDINE] | – | -2.17 | –
CCCCOc1cc(C(=O)NCCN(CC)CC)c2ccccc2n1 [DIBUCAINE] | 8.85 | – | –
C[C@H]1[C@H]2Cc3ccc(O)cc3[C@]1(C)CCN2CC1CC1 [CYCLAZOCINE] | 9.38 | – | 3.31
NC(=O)C1(N2CCCCC2)CCN(CCCC(=O)c2ccc(F)cc2)CC1 [PIPAMPERONE] | 8.28 | – | –
COC(=O)[C@H]1[C@H]2C[C@@H]3c4[nH]c5cc(OC)ccc5c4CCN3C[C@H]2C[C@@H](OC(=O)c2cc(OC)c(OC)c(OC)c2)[C@@H]1OC [RESERPINE] | 6.6 | 3.72 | –
CC(CN(C)C)CN1c2ccccc2Sc2ccccc21 (stereo not given) [METHYLPROMAZINE] | 9.11 | 4.81 | –
CN(C)CCCN1c2ccccc2Sc2ccc(Cl)cc21 [CHLORPROMAZINE] | – | 5.19 | –
CN[C@H]1CC[C@@H](c2ccc(Cl)c(Cl)c2)c2ccccc21 (single isomer, unassigned) [SERTRALINE] | 9.16 | 4.3 | –
c1ccc(CN(CC2=NCCN2)c2ccccc2)cc1 [ANTAZOLINE] | 10.1 | 4.24 | –
O=C(CCCN1CCC(O)(c2ccc(Cl)cc2)CC1)c1ccc(F)cc1 [HALOPERIDOL] | – | 3.23 | –
COCC(=O)O[C@]1(CCN(C)CCCc2nc3ccccc3[nH]2)CCc2cc(F)ccc2[C@@H]1C(C)C [MIBEFRADIL] | – | – | 3.86
CN1CCN(C2=Nc3cc(Cl)ccc3Nc3ccccc32)CC1 [CLOZAPINE] | – | 3.42 | –
CCN1CCCC1CNC(=O)c1cc(S(N)(=O)=O)ccc1OC (stereo not given) [SULPIRIDE] | – | 0.42 | –
